Experimental data from article PMC7156458, “Synthetic biology based construction of biological activity-related library of fungal decalin-containing diterpenoid pyrones” (Nature Communications, 2020).

Molecular target: Aβ42 (Homo sapiens, UniProt P05067)
Assay: Th-T (thioflavin-T) assay of Aβ42 aggregation
Assay type: biochemical
Conditions: for Th-T fluorescence of Aβ42 with compound, mean of three wells (Fig. 7a source data): concentration 50, unit not given

Aβ42, sequence (P05067 672-713): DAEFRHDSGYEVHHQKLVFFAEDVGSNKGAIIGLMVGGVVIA

With `C=C1CCC2C(C)(CCC=C(C)C)C(O)CCC2(C)C1Cc1c(OC)oc(C)c(C(=O)OC)c1=O` (stereo not drawn) [Compound 14] the “Th-T fluorescence of Aβ42 with compound, mean of three wells (Fig. 7a source data)” value (“Th-T fluorescence of Aβ42 with compound” for short) (time-course reading M143) was 0.7264, the “Th-T fluorescence of Aβ42 with compound” value (time-course reading M144) was 0.7091 and the “Th-T fluorescence of Aβ42 with compound” value (time-course reading M145) was 0.7134. The “Th-T fluorescence of Aβ42 (sheet Fig. 7a), mean of three wells” value (head suffix _10 (concentration 10), reading M63) was 2.709, the “Th-T fluorescence of Aβ42 (sheet Fig. 7a), mean of three wells” value (head suffix _10 (concentration 10), reading M64) was 2.685 and the “Th-T fluorescence of Aβ42 (sheet Fig. 7a), mean of three wells” value (head suffix _10 (concentration 10), reading M65) was 2.69. For the same compound, the “Th-T fluorescence of Aβ42 (sheet Fig. 7a), mean of three wells” value (head suffix _10 (concentration 10), reading M66) was 2.693, the “Th-T fluorescence of Aβ42 (sheet Fig. 7a), mean of three wells” value (head suffix _10 (concentration 10), reading M67) was 2.707 and the “Th-T fluorescence of Aβ42 (sheet Fig. 7a), mean of three wells” value (head suffix _10 (concentration 10), reading M68) was 2.71. For the same compound, the “Th-T fluorescence of Aβ42 (sheet Fig. 7a), mean of three wells” value (head suffix _10 (concentration 10), reading M69) was 2.6808, the “Th-T fluorescence of Aβ42 (sheet Fig. 7a), mean of three wells” value (head suffix _10 (concentration 10), reading M70) was 2.69 and the “Th-T fluorescence of Aβ42 (sheet Fig. 7a), mean of three wells” value (head suffix _10 (concentration 10), reading M71) was 2.719. For the same compound, the “Th-T fluorescence of Aβ42 (sheet Fig. 7a), mean of three wells” value (head suffix _10 (concentration 10), reading M72) was 2.755, the “Th-T fluorescence of Aβ42 (sheet Fig. 7a), mean of three wells” value (head suffix _10 (concentration 10), reading M73) was 2.763 and the “Th-T fluorescence of Aβ42 (sheet Fig. 7a), mean of three wells” value (head suffix _10 (concentration 10), reading M74) was 2.748. The “Th-T fluorescence of Aβ42 (sheet Fig. 7a), mean of three wells” value (head suffix _10 (concentration 10), reading M75) was 2.779, the “Th-T fluorescence of Aβ42 (sheet Fig. 7a), mean of three wells” value (head suffix _10 (concentration 10), reading M76) was 2.777 and the “Th-T fluorescence of Aβ42 (sheet Fig. 7a), mean of three wells” value (head suffix _10 (concentration 10), reading M77) was 2.827. For the same compound, the “Th-T fluorescence of Aβ42 (sheet Fig. 7a), mean of three wells” value (head suffix _10 (concentration 10), reading M78) was 2.836, the “Th-T fluorescence of Aβ42 (sheet Fig. 7a), mean of three wells” value (head suffix _10 (concentration 10), reading M79) was 2.796 and the “Th-T fluorescence of Aβ42 (sheet Fig. 7a), mean of three wells” value (head suffix _10 (concentration 10), reading M80) was 2.789. For the same compound, the “Th-T fluorescence of Aβ42 (sheet Fig. 7a), mean of three wells” value (head suffix _10 (concentration 10), reading M81) was 2.809, the “Th-T fluorescence of Aβ42 (sheet Fig. 7a), mean of three wells” value (head suffix _10 (concentration 10), reading M82) was 2.8409 and the “Th-T fluorescence of Aβ42 (sheet Fig. 7a), mean of three wells” value (head suffix _10 (concentration 10), reading M83) was 2.8356. For the same compound, the “Th-T fluorescence of Aβ42 (sheet Fig. 7a), mean of three wells” value (head suffix _10 (concentration 10), reading M84) was 2.801, the “Th-T fluorescence of Aβ42 (sheet Fig. 7a), mean of three wells” value (head suffix _20 (concentration 20), reading M63) was 2.081 and the “Th-T fluorescence of Aβ42 (sheet Fig. 7a), mean of three wells” value (head suffix _20 (concentration 20), reading M64) was 2.033. For the same compound, the “Th-T fluorescence of Aβ42 (sheet Fig. 7a), mean of three wells” value (head suffix _20 (concentration 20), reading M65) was 2.056, the “Th-T fluorescence of Aβ42 (sheet Fig. 7a), mean of three wells” value (head suffix _20 (concentration 20), reading M66) was 1.992 and the “Th-T fluorescence of Aβ42 (sheet Fig. 7a), mean of three wells” value (head suffix _20 (concentration 20), reading M67) was 2.022. For the same compound, the “Th-T fluorescence of Aβ42 (sheet Fig. 7a), mean of three wells” value (head suffix _20 (concentration 20), reading M68) was 2.054, the “Th-T fluorescence of Aβ42 (sheet Fig. 7a), mean of three wells” value (head suffix _20 (concentration 20), reading M69) was 2.0412 and the “Th-T fluorescence of Aβ42 (sheet Fig. 7a), mean of three wells” value (head suffix _20 (concentration 20), reading M70) was 2.012. The “Th-T fluorescence of Aβ42 (sheet Fig. 7a), mean of three wells” value (head suffix _20 (concentration 20), reading M71) was 1.97, the “Th-T fluorescence of Aβ42 (sheet Fig. 7a), mean of three wells” value (head suffix _20 (concentration 20), reading M72) was 1.988 and the “Th-T fluorescence of Aβ42 (sheet Fig. 7a), mean of three wells” value (head suffix _20 (concentration 20), reading M73) was 1.972. The “Th-T fluorescence of Aβ42 (sheet Fig. 7a), mean of three wells” value (head suffix _20 (concentration 20), reading M74) was 1.9541, the “Th-T fluorescence of Aβ42 (sheet Fig. 7a), mean of three wells” value (head suffix _20 (concentration 20), reading M75) was 1.951 and the “Th-T fluorescence of Aβ42 (sheet Fig. 7a), mean of three wells” value (head suffix _20 (concentration 20), reading M76) was 1.9741. The “Th-T fluorescence of Aβ42 (sheet Fig. 7a), mean of three wells” value (head suffix _20 (concentration 20), reading M77) was 1.953, the “Th-T fluorescence of Aβ42 (sheet Fig. 7a), mean of three wells” value (head suffix _20 (concentration 20), reading M78) was 1.933 and the “Th-T fluorescence of Aβ42 (sheet Fig. 7a), mean of three wells” value (head suffix _20 (concentration 20), reading M79) was 1.92. The “Th-T fluorescence of Aβ42 (sheet Fig. 7a), mean of three wells” value (head suffix _20 (concentration 20), reading M80) was 1.931, the “Th-T fluorescence of Aβ42 (sheet Fig. 7a), mean of three wells” value (head suffix _20 (concentration 20), reading M81) was 1.911 and the “Th-T fluorescence of Aβ42 (sheet Fig. 7a), mean of three wells” value (head suffix _20 (concentration 20), reading M82) was 1.915. For the same compound, the “Th-T fluorescence of Aβ42 (sheet Fig. 7a), mean of three wells” value (head suffix _20 (concentration 20), reading M83) was 1.888, the “Th-T fluorescence of Aβ42 (sheet Fig. 7a), mean of three wells” value (head suffix _20 (concentration 20), reading M84) was 1.889 and the “Th-T fluorescence of Aβ42 (sheet Fig. 7a), mean of three wells” value (head suffix _50 (concentration 50), reading M63) was 3.83. For the same compound, the “Th-T fluorescence of Aβ42 (sheet Fig. 7a), mean of three wells” value (head suffix _50 (concentration 50), reading M64) was 3.705, the “Th-T fluorescence of Aβ42 (sheet Fig. 7a), mean of three wells” value (head suffix _50 (concentration 50), reading M65) was 3.586 and the “Th-T fluorescence of Aβ42 (sheet Fig. 7a), mean of three wells” value (head suffix _50 (concentration 50), reading M66) was 3.506. The “Th-T fluorescence of Aβ42 (sheet Fig. 7a), mean of three wells” value (head suffix _50 (concentration 50), reading M67) was 3.421, the “Th-T fluorescence of Aβ42 (sheet Fig. 7a), mean of three wells” value (head suffix _50 (concentration 50), reading M68) was 3.307 and the “Th-T fluorescence of Aβ42 (sheet Fig. 7a), mean of three wells” value (head suffix _50 (concentration 50), reading M69) was 3.193. The “Th-T fluorescence of Aβ42 (sheet Fig. 7a), mean of three wells” value (head suffix _50 (concentration 50), reading M70) was 3.0995, the “Th-T fluorescence of Aβ42 (sheet Fig. 7a), mean of three wells” value (head suffix _50 (concentration 50), reading M71) was 3.0146 and the “Th-T fluorescence of Aβ42 (sheet Fig. 7a), mean of three wells” value (head suffix _50 (concentration 50), reading M72) was 2.931.
